19 molecules from patent US4668672A, “Feed compositions containing pyridylalkylhydrazides” (SmithKline Beckman Corporation, priority 1985, dated 1987) can be followed below.

Where “and” joins values, the source holds several entries; their conditions need not be identical. Equal values may be shown once. Read-outs that look alike come from different tables or passages of the source.

Experiment [1] is described as follows: Chick growth study. The experiment is classed as in vivo, broiler chicks. The note with it: for response vs control in vivo at 40 ppm / response vs control in vivo at 50 ppm / response vs control in vivo at 10 ppm / response vs control in vivo at 49 ppm: Gallus gallus, feed or water, 408 h; for response vs control in vivo at 40 ppm: 40 ppm in feed; for response vs control in vivo at 50 ppm: 50 ppm in feed; for feed conversion / weight gain: chickens; for response vs control in vivo at 10 ppm: 10 ppm in feed; for response vs control in vivo at 49 ppm: 49 ppm in feed. The procedure:
512 Day old broiler chicks, selected for weight, health and sex, are housed in an environmentally controlled room with temperature at 37.7° and humidity at 40%. Chicks are fed ad libitum. Water is offered ad libitum. A corn or, preferably, rye basal ration is fed during the acclimation period (days 1 and 2), then, mixed with the compound under test or used as a control on days 3-17. Either 8 or 16 chicks are used for each test or control group.

Experiment [2] relates to swine ileal or cecal inoculum (filtrate of cannula material). In words: In vitro swine procedure (incubation of inoculum from cannulated swine, in vitro fistula procedure). Set-up: species or system swine (Yorksire barrow).
Setting [3] is: days 3-17, read-out: Feed Gain (3-17 day).
[4] abbreviates: days 3-17, read-out: Weight (17 day).
The mark [5] stands for this setting: 166.67 ppm, 5 hours at 37°, blank control = 100%.
Setting [6] is: 1.67 ppm, 5 hours at 37°, blank control = 100%.
Setting [7] is: 16.67 ppm, 5 hours at 37°, blank control = 100%.
Setting [8] is: 116.67 ppm, 5 hours at 37°, blank control = 100%.
The mark [9] stands for this setting: 50.0 (unit not given) in feed, days 3-17.

With `COC(=O)NN=Cc1ccncc1`, the response vs control in vivo at 40 ppm came to 102% in experiment [1] (setting [3]) and 96.9% in experiment [1] (setting [4]).
`COC(=O)NN=Cc1cccnc1`: the response vs control in vivo at 50 ppm in experiment [1] (setting [3]) was 102%; in experiment [1] (setting [4]), 98.4%.
Regarding “3-azabicyclo[3.2.2]nonane-3-carbothioic acid 2-[1-(2-pyridyl)ethyl]hydrazide”, in experiment [1] (fed at 50 ppm), the feed conversion result is given as “better feed conversion” and the weight gain entry was “increased weight gain”.
In the case of `CC(=NNC(=S)N1CCCCCC1)c1ccccn1` [Compound 10], in experiment [1] (setting [3]), the response vs control in vivo at 10 ppm was 92.3% and the response vs control in vivo at 50 ppm was 80.6%. Also, in experiment [1] (setting [4]), the response vs control in vivo at 10 ppm was found to be 110% and the response vs control in vivo at 50 ppm stood at 103%.
In the case of `CC(=NNC(=S)N1CCCCC1)c1ccccn1` [drawing 2], in experiment [2] (setting [5]), the “LYS (lysine)” value was 23 % of Control Values and 18 % of Control Values; the “VFA (total of volatile fatty acids)” value was 63 % of Control Values.
Consider `COC(=O)NN=C(C)c1ccccn1` [drawing 3], for which the results for the “LYS (lysine)” value in experiment [2] (setting [6]), in experiment [2] (setting [7]) and in experiment [2] (setting [5]) were 70 % of Control Values, 134 % of Control Values and 99 % of Control Values, respectively. The “VFA (total of volatile fatty acids)” value in experiment [2] (setting [7]) is on record as 94 % of Control Values; in experiment [2] (setting [5]), 88 % of Control Values.
In the case of `COC(=O)NN=Cc1ccccn1` [drawing 4], the results for the “LYS (lysine)” value in experiment [2] (setting [6]), in experiment [2] (setting [7]) and in experiment [2] (setting [5]) were 65 % of Control Values, 140 % of Control Values and 109 % of Control Values, respectively. The “VFA (total of volatile fatty acids)” value in experiment [2] (setting [6]) was 90 % of Control Values; in experiment [2] (setting [7]), 104 % of Control Values; in experiment [2] (setting [5]), 109 % of Control Values.
As for `CC(=NNC(N)=S)c1ccccn1` [drawing 5], in experiment [2] (setting [5]), the “GLU (glucose)” value is 147 % of Control Values, the “LAC (L lactic acid)” value is on record as 88 % of Control Values, the “LYS (lysine)” value was 137 % of Control Values and the “VFA (total of volatile fatty acids)” value is reported as 43 % of Control Values.
As for `CC(=NNC(=S)N1CC2CCC(CC2)C1)c1ccccn1` [drawing 6], the “VFA (total of volatile fatty acids)” value in experiment [2] is listed as 97 % of Control Values. The “LYS (lysine)” value in experiment [2] (setting [5]) is given as 107 % of Control Values.
On to `CSC(=S)NN=C(C)c1ccccn1` [drawing 7], for which, in experiment [2] (setting [5]), the “GLU (glucose)” value was 95 % of Control Values, the “LAC (L lactic acid)” value is given as 113 % of Control Values, the “LYS (lysine)” value is 103 % of Control Values and the “VFA (total of volatile fatty acids)” value is given as 89 % of Control Values.
For `CC(=NNC(=S)N1CC2CCC(CC2)C1)c1ccccn1` [drawing 8], the response vs control in vivo at 50 ppm in experiment [1] (setting [3]) was determined as 80.6%; in experiment [1] (setting [4]), 103%.
For `CC(=NNC(=S)N1CCCCC1)c1ccccn1` [drawing 9], in experiment [1] (setting [3]), the response vs control in vivo at 10 ppm is 92.3% and the response vs control in vivo at 50 ppm amounted to 80.6%. Moreover, in experiment [1] (setting [4]), the response vs control in vivo at 10 ppm was 110% and the response vs control in vivo at 50 ppm stood at 103%.
With `COC(=O)NN=Cc1ccccn1` [drawing 12], the figures for the response vs control in vivo at 50 ppm in experiment [1] (setting [3]) and in experiment [1] (setting [4]) were 86.4% and 119%, respectively.
For `COC(=O)NN=C(C)c1ccccn1` [drawing 13] the same measures were 94% and 110%.
For `CC(=NNC(N)=S)c1ccccn1` [drawing 14] the same measures were 91.2% and 107%.
With `CC(=NNC(=S)N1CC2CCC(CC2)C1)c1ccccn1` [drawing 15], the figures for the response vs control in vivo at 49 ppm in experiment [1] (setting [3]) and in experiment [1] (setting [4]) were 84.1% and 102%, respectively.
For `CSC(=S)NN=C(C)c1ccccn1` [drawing 16], the response vs control in vivo at 40 ppm in experiment [1] (setting [3]) turned out to be 86.6%; in experiment [1] (setting [4]), 72.8%.
Regarding `CC(=NNC(=S)N1CCCCCC1)c1ccccn1` [hexahydro-1H-azepine-1-carbothioic acid [1-(2-pyridinyl)-ethylidinyl]hydrazide], in experiment [1] (fed at 10 and 50 ppm), the feed conversion entry is “better feed conversion” and the weight gain entry is reported as “increased weight gain”.
Consider Virginiamycin [reference compound], for which the “GLU (glucose)” value in experiment [2] was 190 % of Control Values. In addition, in experiment [2] (setting [8]), the “LAC (L lactic acid)” value is 17 % of Control Values, the “LYS (lysine)” value is 171 % of Control Values and the “VFA (total of volatile fatty acids)” value is 25 % of Control Values. Also, in experiment [1] (setting [9]), the “Feed Gain (3-17 day)” value is on record as 85.0 % of Control and the “Weight (17 day)” value is listed as 118.9 % of Control.
